pIC50: −log10 of the molar value. Counter-ions that a name gives are not always drawn.

As a reminder, the pIC50 is the IC50 on a negative log10 scale, so that one unit is a factor of ten.

The target of the assay is NLRP3 (Homo sapiens, UniProt Q96P20). Kind of assay: THP-1 cells pyroptosis assay (LPS + nigericin, resazurin read-out). It is filed as cell-based. Also noted: Seed THP-1 cells (25,000 cells/well) containing 1.0 μg/ml LPS; host or cells: THP-1 cells. Conditions: NLRP3 inhibitory activity, 1 μg/ml LPS, 5 μM nigericin. Here is the method: The cells were routinely passaged and grown to confluency (˜10^6 cells/ml). On the day of the experiment, THP-1 cells were harvested and resuspended into RPMI medium (without FBS). The cells were then counted and viability (>90%) checked by Trypan blue (Sigma #T8154). […] To this diluted cell solution was added LPS (Sigma #L4524) to give a 1 μg/ml Final Assay Concentration (FAC). 40 μl of the final preparation was aliquoted into each well of a 96-well plate. The plate thus prepared was used for compound screening. The following method step-by-step assay was followed for compound screening. • 1. […] Incubate for 3 hrs at 37° C., 5% CO2 • 4. Add 5 μl nigericin (Sigma #N7143) (FAC 5 μM) to all wells • 5. Incubate for 1 hr at 37° C., 5% CO2 • 6. At the end of the incubation period, spin plates at 300×g for 3 mins and remove supernatant • 7. Then add 50 μl of resazurin (Sigma #R7017) (FAC 100 μM resazurin in RPMI medium without FBS) and incubate plates for a further 1-2 hrs at 37° C. and 5% CO2 • 8.
NLRP3, sequence (Q96P20 whole entry): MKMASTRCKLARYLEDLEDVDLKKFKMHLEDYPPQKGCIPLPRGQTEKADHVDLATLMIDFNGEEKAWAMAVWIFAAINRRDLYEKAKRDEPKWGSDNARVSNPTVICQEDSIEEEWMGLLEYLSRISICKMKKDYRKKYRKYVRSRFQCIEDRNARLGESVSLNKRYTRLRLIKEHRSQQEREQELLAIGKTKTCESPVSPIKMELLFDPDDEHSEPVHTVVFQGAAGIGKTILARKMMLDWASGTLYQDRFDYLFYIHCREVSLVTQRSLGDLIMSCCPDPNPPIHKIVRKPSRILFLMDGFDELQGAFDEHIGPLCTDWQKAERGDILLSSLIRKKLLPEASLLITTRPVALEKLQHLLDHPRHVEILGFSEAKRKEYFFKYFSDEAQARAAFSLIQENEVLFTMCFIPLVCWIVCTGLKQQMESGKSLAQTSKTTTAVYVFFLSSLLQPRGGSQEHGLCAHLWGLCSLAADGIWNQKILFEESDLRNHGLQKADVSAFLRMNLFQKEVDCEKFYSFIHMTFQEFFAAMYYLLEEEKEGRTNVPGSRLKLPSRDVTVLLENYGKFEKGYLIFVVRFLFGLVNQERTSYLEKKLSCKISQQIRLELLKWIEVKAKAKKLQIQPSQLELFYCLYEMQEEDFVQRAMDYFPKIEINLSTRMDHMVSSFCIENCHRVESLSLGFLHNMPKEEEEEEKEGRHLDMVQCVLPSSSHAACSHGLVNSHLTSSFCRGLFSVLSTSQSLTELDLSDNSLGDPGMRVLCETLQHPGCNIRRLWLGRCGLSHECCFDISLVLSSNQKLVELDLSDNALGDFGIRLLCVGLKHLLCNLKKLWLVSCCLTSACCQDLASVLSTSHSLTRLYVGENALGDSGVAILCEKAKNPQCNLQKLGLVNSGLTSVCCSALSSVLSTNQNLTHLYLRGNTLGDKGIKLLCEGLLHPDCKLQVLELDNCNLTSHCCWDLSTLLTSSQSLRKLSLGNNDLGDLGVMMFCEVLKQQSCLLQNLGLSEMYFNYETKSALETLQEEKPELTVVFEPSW
Regarding `COc1cc(-c2cc(F)cc(C(C)C)c2CC(=O)Nc2ncco2)ccn1` [Example 95, 2-(4-Fluoro-2-isopropyl-6-(2-methoxypyridin-4-yl)phenyl)-N-(oxazol-2-yl)acetamide], the pIC50 was 5.00 to 5.30.

As for `CC(C)c1cc(F)cc(C(C)C)c1NC(=O)NS(=O)(=O)c1ccn(CC(F)(F)F)n1` [Example 78, N-((4-Fluoro-2,6-diisopropylphenyl)carbamoyl)-1-(2,2,2-trifluoroethyl)-1H-pyrazole-3-sulfonamide, sodium salt], the pIC50 is 5.30 to 6.00.

As to `CC(C)c1cc(F)cc2c1C(C(=O)NS(=O)(=O)c1cc(C(=O)N(C)C)n(C)n1)CC2(C)C` (stereo not drawn) [Example 11, 3-(N-(5-Fluoro-7-isopropyl-3,3-dimethyl-2,3-dihydro-1H-indene-1-carbonyl)sulfamoyl)-N,N,1-trimethyl-1H-pyrazole-5-carboxamide], the negative-log IC50 (pIC50) was 5.00 to 5.30.

Turning to `Cc1nn(C)cc1S(=O)(=O)NC(=O)Nc1c2c(cc3c1CCC3)CCC2` [Example 80, N-((1,2,3,5,6,7-Hexahydro-s-indacen-4-yl)carbamoyl)-1,3-dimethyl-1H-pyrazole-4-sulfonamide, sodium salt], the negative-log IC50 (pIC50) is 6.00 to 6.30.

As for `O=C(Nc1c2c(cc3c1CCC3)CCC2)NS(=O)(=O)c1cnn(CC2CC2)c1` [Example 44, 1-(Cyclopropylmethyl)-N-((1,2,3,5,6,7-hexahydro-s-indacen-4-yl)carbamoyl)-1H-pyrazole-4-sulfonamide, sodium salt], the pIC50 was more than 6.60.

Take `CC(C)(O)c1coc(S(=O)(=O)NC(=O)Cc2cc(Cl)cc(C(F)(F)F)c2)c1` [Example 92, 2-(3-Chloro-5-(trifluoromethyl)phenyl)-N-((4-(2-hydroxypropan-2-yl)furan-2-yl)sulfonyl)acetamide]: the pIC50 is 5.00 to 5.30.

For `CC(C)(O)c1coc(S(=O)(=O)NC(=O)Cn2ncc3ccccc32)c1` [Example 89, N-((4-(2-Hydroxypropan-2-yl)furan-2-yl)sulfonyl)-2-(1H-indazol-1-yl)acetamide], the negative-log IC50 (pIC50) is 5.30 to 6.00.

For the molecule `CC(C)(O)c1coc(S(=O)(=O)NC(=O)Cc2cccc(I)c2)c1` [Example 93, N-((4-(2-Hydroxypropan-2-yl)furan-2-yl)sulfonyl)-2-(3-iodophenyl)acetamide], the pIC50 is 5.00 to 5.30.

Regarding `CC(C)c1cccc(C(C)C)c1NC(=O)NS(=O)(=O)c1cnn(CC(F)(F)F)c1` [Example 76, N-((2,6-Diisopropylphenyl)carbamoyl)-1-(2,2,2-trifluoroethyl)-1H-pyrazole-4-sulfonamide], the pIC50 was 5.00 to 5.30.

For the molecule `CC(C)c1cc(F)cc(C(C)C)c1CC(=O)NS(=O)(=O)c1cc(C(C)(C)O)n(C)n1` [Example 32, 2-(4-Fluoro-2,6-diisopropylphenyl)-N-((5-(2-hydroxypropan-2-yl)-1-methyl-1H-pyrazol-3-yl)sulfonyl)acetamide, ammonium salt], the pIC50 is 5.30 to 6.00.

In the case of `CC(C)n1ccc(S(=O)(=O)NC(=O)Nc2c3c(c(C#N)c4c2CCC4)CCC3)n1` [Example 37, N-((8-Cyano-1,2,3,5,6,7-hexahydro-s-indacen-4-yl)carbamoyl)-1-isopropyl-1H-pyrazole-3-sulfonamide], the pIC50 is 6.30 to 6.60.

On to `CC(C)c1cc(F)cc(C(F)(F)F)c1NC(=O)NS(=O)(=O)c1ccn(C(C)C)n1` [Example 70, N-((4-Fluoro-2-isopropyl-6-(trifluoromethyl)phenyl)carbamoyl)-1-isopropyl-1H-pyrazole-3-sulfonamide], for which the pIC50 was 5.00 to 5.30.

On to `CC(C)n1ccc(S(=O)(=O)NC(=O)Nc2c3c(c(Br)c4c2CCC4)CCC3)n1` [Example 38, N-((8-Bromo-1,2,3,5,6,7-hexahydro-s-indacen-4-yl)carbamoyl)-1-isopropyl-1H-pyrazole-3-sulfonamide], for which the negative logarithm of the IC50 (pIC50) was more than 6.60.

As to `Cc1cc(C(C)(C)O)ccc1S(=O)(=O)NC(=O)C1CC(C)(C)c2cc(F)cc(C(C)C)c21` (stereo not drawn) [Example 1, 5-Fluoro-N-((4-(2-hydroxypropan-2-yl)-2-methylphenyl)sulfonyl)-7-isopropyl-3,3-dimethyl-2,3-dihydro-1H-indene-1-carboxamide], the pIC50 was 5.00 to 5.30.

For the molecule `CC(C)(O)c1coc(S(=O)(=O)NC(=O)Cc2cc(Cl)cc(OC(F)(F)F)c2)c1` [Example 91, 2-(3-Chloro-5-(trifluoromethoxy)phenyl)-N-((4-(2-hydroxypropan-2-yl)furan-2-yl)sulfonyl)acetamide], the pIC50 is 5.30 to 6.00.

For the molecule `CC(C)c1cc(F)cc(C(C)C)c1CC(=O)NS(=O)(=O)c1cc(C(C)(C)O)n(C(C)C)n1` [Example 29, 2-(4-Fluoro-2,6-diisopropylphenyl)-N-((5-(2-hydroxypropan-2-yl)-1-isopropyl-1H-pyrazol-3-yl)sulfonyl)acetamide], the pIC50 was 5.00 to 5.30.

`Cc1nn(C(C)C)cc1S(=O)(=O)NC(=O)Nc1c2c(cc3c1CCC3)CCC2` [Example 43, N-((1,2,3,5,6,7-Hexahydro-s-indacen-4-yl)carbamoyl)-1-isopropyl-3-methyl-1H-pyrazole-4-sulfonamide, sodium salt]: the pIC50 is 6.30 to 6.60.

On to `COc1cc(-c2cc(F)cc(C(C)C)c2CCC(=O)NS(=O)(=O)c2cc(C(C)(C)O)cs2)ccn1` [Example 5, 3-(4-Fluoro-2-isopropyl-6-(2-methoxypyridin-4-yl)phenyl)-N-((4-(2-hydroxypropan-2-yl)thiophen-2-yl)sulfonyl)propanamide], for which the pIC50 is 5.00 to 5.30.

For the molecule `CC(C)c1cccc(O[C@@H]2CCOC2)c1NC(=O)NS(=O)(=O)c1ccn(C(C)C)n1` [Example 85, (R)-1-Isopropyl-N-((2-isopropyl-6-((tetrahydrofuran-3-yl)oxy)phenyl)carbamoyl)-1H-pyrazole-3-sulfonamide], the pIC50 was 5.00 to 5.30.

As for `COc1cc(-c2ccc3c(c2NC(=O)N[S+]([O-])c2ccn(C(C)C)n2)CCC3)ccn1` (stereo not drawn) [Example 23, 1-Isopropyl-N-((5-(2-methoxypyridin-4-yl)-2,3-dihydro-1H-inden-4-yl)carbamoyl)-1H-pyrazole-3-sulfinamide], the pIC50 was 5.30 to 6.00.

On to `CC(C)c1cc(-c2ccccc2)cc(C(C)C)c1NC(=O)NS(=O)(=O)c1ccn(C(C)C)n1` [Example 73, N-((3,5-Diisopropyl-[1,1′-biphenyl]-4-yl)carbamoyl)-1-isopropyl-1H-pyrazole-3-sulfonamide], for which the pIC50 is 5.00 to 5.30.

For `CC(C)c1cc(F)cc(C(C)C)c1CC(=O)NS(=O)(=O)c1ncc(C(C)(C)O)s1` [Example 30, 2-(4-Fluoro-2,6-diisopropylphenyl)-N-((5-(2-hydroxypropan-2-yl)thiazol-2-yl)sulfonyl)acetamide], the pIC50 is 5.30 to 6.00.

With `CC(C)c1cc(F)cc(C(C)C)c1NC(=O)NS(=O)(=O)c1cc(C(C)(C)O)n(C(C)C)n1` [Example 50, N-((4-Fluoro-2,6-diisopropylphenyl)carbamoyl)-5-(2-hydroxypropan-2-yl)-1-isopropyl-1H-pyrazole-3-sulfonamide], the pIC50 was 6.30 to 6.60.

For `COc1cc(-c2ccc3c(c2CC(=O)NS(=N)(=O)C2CN(C(C)C)C2)CCC3)ccn1` (stereo not drawn) [Example 25, N-(1-Isopropylazetidine-3-sulfonimidoyl)-2-(5-(2-methoxypyridin-4-yl)-2,3-dihydro-1H-inden-4-yl)acetamide], the pIC50 was 5.00 to 5.30.

As to `CCOC(=O)c1cc(S(=O)(=O)NC(=O)Nc2c3c(cc4c2CCC4)CCC3)nn1C` [Example 79, Ethyl 3-(N-((1,2,3,5,6,7-hexahydro-s-indacen-4-yl)carbamoyl)sulfamoyl)-1-methyl-1H-pyrazole-5-carboxylate], the pIC50 is 6.00 to 6.30.

As to `CCOC(=O)CNC(=O)Nc1c2c(cc(C)c1-c1ccnc(OC3CCN(C)CC3)c1)CCC2` [Example 97, Ethyl 2-(3-(6-methyl-5-(2-((1-methylpiperidin-4-yl)oxy)pyridin-4-yl)-2,3-dihydro-1H-inden-4-yl)ureido)acetate], the negative logarithm of the IC50 (pIC50) is 5.30 to 6.00.

`CC(C)c1cc(C#N)cc(C(C)C)c1NC(=O)NS(=O)(=O)c1cnn(C(C)C)c1` [Example 75, N-((4-Cyano-2,6-diisopropylphenyl)carbamoyl)-1-isopropyl-1H-pyrazole-4-sulfonamide]: the pIC50 was 5.30 to 6.00.

For `CC(O)c1cc(S(=O)(=O)NC(=O)Nc2c3c(cc4c2CCC4)CCC3)nn1C` (stereo not drawn) [Example 74, N-((1,2,3,5,6,7-Hexahydro-s-indacen-4-yl)carbamoyl)-5-(1-hydroxyethyl)-1-methyl-1H-pyrazole-3-sulfonamide], the pIC50 is 6.00 to 6.30.

As for `COc1cc(-c2cc(F)cc(C(C)C)c2CCC(=O)NS(=O)(=O)c2ccc(CN(C)C)cc2)ccn1` [Example 4, N-((4-((Dimethylamino)methyl)phenyl)sulfonyl)-3-(4-fluoro-2-isopropyl-6-(2-methoxypyridin-4-yl)phenyl)propanamide, potassium salt], the pIC50 is 5.00 to 5.30.

`CC(C)c1cc(F)cc(C(C)C)c1CC(=O)NS(=O)(=O)c1cnc(C(C)(C)O)s1` [Example 27, 2-(4-Fluoro-2,6-diisopropylphenyl)-N-((2-(2-hydroxypropan-2-yl)thiazol-5-yl)sulfonyl)acetamide]: the negative-log IC50 (pIC50) is 5.30 to 6.00.

Values taken from patent US20220106289A1, “NLRP3 INHIBITORS” (INFLAZOME LIMITED, priority 2018, published 2022).
